# From PMC9861390, “Synthesis and Molecular Docking of Some Novel 3-Thiazolyl-Coumarins as Inhibitors of VEGFR-2 Kinase” (Molecules, 2023)
# Columns and labels:
# [1] = tested on: human breast cancer (MCF-7) cell line; assay: MTT cytotoxicity assay on MCF-7; assay type: cell-based; details: MCF7, 24 h incubation, mean and standard error of three tests
# Protocol: (§1) Afterward, the determination of the tested sample concentrations that were sufficient to kill 50 percent of the cell population (IC50) was done by using the cytotoxicity results in plotting a dose-response curve.
# (§2) In addition, cytotoxic activities were reported as the average IC50 from three separate tests.
# The cytotoxicity of the investigated substances was assessed and determined by MTT assay, and the detailed cytotoxicity assay is included in the Supplementary File S1 [57, 58].
# 1H-NMR spectra of compound 12c-1
# (§3) The tested human breast cancer (MCF -7) cell lines and normal cell line LLC - Mk2 were obtained from the American Type Culture Collection (ATCC, Rockville, MD). The cells were grown on RPMI -1640 medium supplemented with 10% inactivated fetal calf serum and 50µg/mL gentamycin (Lonza, Belgium). The cells were maintained at 37 °C in a humidified atmosphere with 5% CO 2 and were subcultured two to three times a week during the period of experiment .
# (§4) For antitumor assays, the tumor cell lines were suspended in medium at cell density of 5x10^4 cells/well in Corning® 96-well tissue culture plates and then incubated for 24 hours. The tested compounds were then added into 96-well plates (six replicates) to achieve eight concentrations for each compound. Six vehicle controls with media or 0.5 % DMSO were run for each 96 well plate as a control. After incubating for 24 h, the numbers of viable cells were determined by the MTT assay. Briefly, the media was removed from the 96-well plate and replaced with 100 µl of fresh culture RPMI 1640 medium without phenol red then 10
# (§5) (1 picture or pasted object on this page, not shown here) […]
# (§6) µL of the 12 mM MTT stock solution {5 mg of 3-(4,5-dimethylthiazol-2-yl)-2,5-diphenyltetrazolium bromide purchased from Sigma-Aldrich (St. Louis, MO) in 1 mL of Phosphate buffered saline} to each well including the untreated controls. The 96 well plates were then incubated at 37°C and 5% CO 2 for 4 hours.
# (§7) An 85 µl aliquot of the media was removed from the wells, and 50 µL of DMSO was added to each well and mixed thoroughly with the pipette and incubated at 37 °C for 10 min. Then, the optical density was measured at 590 nm with the microplate reader (SunRise, TECAN, Inc, USA) to dete rmine the number of viable cells and the percentage of viability was calculated as [(ODt/ODc)]x100% where ODt is the mean optical density of wells treated with the tested sample and ODc is the mean optical density of untreated cells. The relation between surviving cells and drug concentration is plotted to get the survival curve of each tumor cell line after treatment with the specified compound. The 50% inhibitory concentration (IC 50), the concentration required to cause toxic effects in 50% of intact cells, was estimated from graphic plots of the dose response curve for each conc. using GraphPad Prism software (San Diego, CA. USA)[ 2].
# 1. Mosmann, T. Rapid colorimetric assay for cellular growth and survival: application to proliferation and cytotoxicity assays. J. Immunol. Methods 1983, 65, 55-63.
# [2] = MTT cytotoxicity assay on normal cell line LLC-Mk2; assay type: cell-based; details: rhesus monkey, LLC-Mk2 kidney epithelial normal cells, mean and standard error
# Protocol: as §1, §2
# The cytotoxicity of the investigated substances was assessed and determined by MTT assay, and the detailed cytotoxicity assay is included in the Supplementary File S1 [57, 58]. […]
# as §3, §4, §5, §6
# as §7, with “2]. […]” for “2].”
# [3] = tested on: VEGFR-2; set-up: method as in PMID 28942113, PMID 21078410, PMID 26916914, PMID 27367493, PMID 35807236; details: in Figure 2; cited from earlier work
melting point [°C],Structure (SMILES),IC50 [1] [µM],CC50 at 24 h [2] [µM],VEGFR-2 inhibition [3] [%]
,"CNC(=O)c1cc(Oc2ccc(NC(=O)Nc3ccc(Cl)c(C(F)(F)F)c3)cc2)ccn1 [Sorafenib, reference compound]",5.1 ± 0.49,135 ± 4.08,
,CO/C=N\C1=C(C#N)C(c2ccc(F)cc2)c2c(c3ccccc3oc2=O)C1 (stereo not drawn) [IV],,,94
,CC(=NNc1nc(C)c(N=Nc2ccc(Cl)cc2)s1)c1cc2cc(N=Nc3ccccc3)ccc2oc1=O [Compound 6d],10.5 ± 0.71,132 ± 8.26,
177 to 179,"CC(=NNC(N)=S)c1cc2cc(N=Nc3ccccc3)ccc2oc1=O [Compound 3, 2-(1-(2-oxo-6-(phenyldiazenyl)-2H-chromen-3-yl)ethylidene)hydrazine-1-carbothioamide]",,,
217 to 219,CC(=NNc1nc(-c2ccccc2)cs1)c1cc2cc(N=Nc3ccccc3)ccc2oc1=O [Compound 12a],,,
201 to 203,C/C(=N\Nc1nc(C)c(/N=N/c2ccccc2)s1)c1cc2cc(/N=N/c3ccccc3)ccc2oc1=O [Compound 6a],,,
205 to 207,COc1ccc(-c2csc(NN=C(C)c3cc4cc(N=Nc5ccccc5)ccc4oc3=O)n2)cc1 [Compound 12b],,,
,CC(=NNc1nc(C)c(N=Nc2ccc(C)cc2)s1)c1cc2cc(N=Nc3ccccc3)ccc2oc1=O [Compound 6b],11.2 ± 0.8,152 ± 9.3,
,O=c1oc2cc(O)ccc2c(Nc2ccc(OCCN3CCCCC3)cc2)c1-c1ccc(F)cc1 [X = NH],,,88.42
,CC(=NNC1=NC(=O)C(=NNc2ccc(C)cc2)S1)c1cc2cc(N=Nc3ccccc3)ccc2oc1=O [Compound 10a],28.6 ± 0.64,140 ± 10.3,
,O=c1oc2cc(O)ccc2c(Oc2ccc(OCCN3CCCCC3)cc2)c1-c1ccc(F)cc1 [X = O],,,82.92
190 to 192,CC(=NNC1=NC(=O)C(=NNc2ccc(Cl)cc2)S1)c1cc2cc(N=Nc3ccccc3)ccc2oc1=O [Compound 10b],,,
216 to 218,CC(=NNc1nc(C)c(N=Nc2ccc(Cl)cc2Cl)s1)c1cc2cc(N=Nc3ccccc3)ccc2oc1=O [Compound 6e],,,
,C/C(=N\c1ccc(F)cc1)c1c(O)c2ccccc2oc1=O [III],,,94
,CC(=NNC1=NC(=O)C(=NNc2ccc([N+](=O)[O-])cc2)S1)c1cc2cc(N=Nc3ccccc3)ccc2oc1=O [Compound 10c],15.7 ± 0.67,163 ± 9.12,
231 to 233,C/C(=N\Nc1nc(-c2ccc([N+](=O)[O-])cc2)cs1)c1cc2cc(/N=N/c3ccccc3)ccc2oc1=O [Compound 12c],,,
179 to 181,COc1ccc(/N=N/c2sc(N/N=C(\C)c3cc4cc(/N=N/c5ccccc5)ccc4oc3=O)nc2C)cc1 [Compound 6c],14.1 ± 0.63,141 ± 5.15,
